Target: Nitric oxide synthase 1 (Rattus norvegicus) (UniProt P29476)
Assay: Effect on the activity of recombinant rat neuronal nitric oxide synthase as determined with radioactive L-arginine/L-citruline conversion assay
Parameters: concentration or dose not given beside the values
Details: concentration not given here

Sequence of Nitric oxide synthase 1 (Rattus norvegicus) (P29476 whole entry): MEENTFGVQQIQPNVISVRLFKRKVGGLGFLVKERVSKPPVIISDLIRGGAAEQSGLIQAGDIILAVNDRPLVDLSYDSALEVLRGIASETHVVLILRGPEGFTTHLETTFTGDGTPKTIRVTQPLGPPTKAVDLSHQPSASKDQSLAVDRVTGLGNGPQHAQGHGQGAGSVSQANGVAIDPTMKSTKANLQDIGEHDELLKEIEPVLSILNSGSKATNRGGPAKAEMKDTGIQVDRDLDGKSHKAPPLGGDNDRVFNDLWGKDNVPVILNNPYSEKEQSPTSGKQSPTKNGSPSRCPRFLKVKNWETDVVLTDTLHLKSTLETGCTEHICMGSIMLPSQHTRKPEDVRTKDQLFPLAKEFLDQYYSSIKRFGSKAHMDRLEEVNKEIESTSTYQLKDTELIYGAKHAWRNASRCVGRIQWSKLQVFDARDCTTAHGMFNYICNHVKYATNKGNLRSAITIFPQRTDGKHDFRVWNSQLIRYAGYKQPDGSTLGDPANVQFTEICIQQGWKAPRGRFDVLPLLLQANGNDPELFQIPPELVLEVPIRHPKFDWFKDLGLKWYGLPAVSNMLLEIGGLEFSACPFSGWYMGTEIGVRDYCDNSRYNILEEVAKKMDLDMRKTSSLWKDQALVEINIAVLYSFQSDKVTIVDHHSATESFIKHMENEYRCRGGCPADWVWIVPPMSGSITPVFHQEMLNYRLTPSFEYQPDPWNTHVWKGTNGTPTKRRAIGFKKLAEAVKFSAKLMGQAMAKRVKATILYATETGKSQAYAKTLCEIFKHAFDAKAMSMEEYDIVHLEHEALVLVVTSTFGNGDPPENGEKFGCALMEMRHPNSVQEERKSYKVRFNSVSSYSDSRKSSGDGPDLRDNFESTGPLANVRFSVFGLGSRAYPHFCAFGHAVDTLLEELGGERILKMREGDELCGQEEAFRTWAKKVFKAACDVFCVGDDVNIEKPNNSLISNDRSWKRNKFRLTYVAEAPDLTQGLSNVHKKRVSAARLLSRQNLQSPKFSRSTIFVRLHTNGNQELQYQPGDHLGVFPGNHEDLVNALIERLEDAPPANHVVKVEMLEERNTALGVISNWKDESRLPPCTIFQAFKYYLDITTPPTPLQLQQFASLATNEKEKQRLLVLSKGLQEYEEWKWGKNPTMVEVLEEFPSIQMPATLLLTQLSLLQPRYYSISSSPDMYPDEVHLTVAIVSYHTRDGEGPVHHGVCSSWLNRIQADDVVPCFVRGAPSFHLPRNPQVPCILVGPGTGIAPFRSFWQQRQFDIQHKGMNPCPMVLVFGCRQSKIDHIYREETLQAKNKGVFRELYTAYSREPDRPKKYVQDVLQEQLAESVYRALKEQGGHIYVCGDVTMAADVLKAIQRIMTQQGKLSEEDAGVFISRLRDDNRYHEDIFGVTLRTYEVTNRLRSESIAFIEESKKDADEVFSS

Row | SMILES | inhibition [%]
1 | NCC(O)c1cc(O)c(O)cc1[N+](=O)[O-] (stereo unspecified) | 78
2 | Cc1cc([N+](=O)[O-])cc(O)c1O | 28
3 | NCCc1cc(O)c(O)cc1[N+](=O)[O-] | 71
4 | O=[N+]([O-])c1cccc(O)c1O | 94
5 | Cc1cc(O)c(O)cc1[N+](=O)[O-] | 35
6 | O=[N+]([O-])c1ccc(O)c(O)c1 | 33

— ChEMBL document CHEMBL1135086
